The record followed here is ChEMBL document CHEMBL4825739, “Cannabinoid Receptor Agonists for the Potential Treatment of Pain, Neurological Disorders, Fibrotic Diseases, Obesity, and Many More” (ACS Med Chem Lett, 2021).

Holding throughout (assay type): functional, cell-based
Assay [1] concerns the target T1, Cannabinoid receptor 2 (Homo sapiens, UniProt P34972). In words: Agonist activity at human CB2 receptor expressed in CHO-K1 cells assessed as maximum efficacy incubated for 20 mins measured after 60 mins addition of cAMP detect reagent by HTRF analysis relative to control. As to conditions: filed as agonist, time 80.0 min. (TR-FRET usually uses a lanthanide donor and a delayed reading to cut background.)

Assay [2] deals with T2, Cannabinoid receptor 1 (Homo sapiens, UniProt P21554). The experiment in a line: Agonist activity at human CB1 receptor expressed in CHO-K1 cells assessed as maximum efficacy incubated for 20 mins measured after 60 mins addition of cAMP detect reagent by HTRF analysis relative to control. As to conditions: filed as agonist.
In assay [3] the target is T2, Cannabinoid receptor 1. The experiment in a line: Agonist activity at human CB1 receptor expressed in CHO-K1 cells assessed as […] incubated for 20 mins measured after 60 mins addition of cAMP detect reagent by HTRF analysis. For orientation: Cyclic AMP is a second messenger, typically raised through Gs and lowered through Gi signalling.
Assay [4] addresses T1, Cannabinoid receptor 2. The experiment in a line: Agonist activity at human CB2 receptor expressed in CHO-K1 cells assessed as […] incubated for 20 mins measured after 60 mins addition of cAMP detect reagent by HTRF analysis.

Molecules are shown by their SMILES. pEC50: −log10 of the molar value.

T2 sequence (P21554 whole entry): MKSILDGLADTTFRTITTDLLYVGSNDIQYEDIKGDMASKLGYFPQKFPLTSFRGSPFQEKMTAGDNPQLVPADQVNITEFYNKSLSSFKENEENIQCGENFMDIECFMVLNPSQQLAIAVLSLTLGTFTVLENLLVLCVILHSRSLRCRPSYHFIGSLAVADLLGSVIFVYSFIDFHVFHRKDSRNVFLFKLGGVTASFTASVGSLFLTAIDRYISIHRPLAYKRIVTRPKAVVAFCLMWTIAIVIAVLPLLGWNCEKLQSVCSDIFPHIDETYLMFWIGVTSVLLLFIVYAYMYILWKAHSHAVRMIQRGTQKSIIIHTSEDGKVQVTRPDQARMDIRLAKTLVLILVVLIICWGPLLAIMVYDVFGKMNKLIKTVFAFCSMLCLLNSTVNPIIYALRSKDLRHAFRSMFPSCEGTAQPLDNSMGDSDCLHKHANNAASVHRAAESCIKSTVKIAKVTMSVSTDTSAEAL
T1 sequence (P34972 whole entry): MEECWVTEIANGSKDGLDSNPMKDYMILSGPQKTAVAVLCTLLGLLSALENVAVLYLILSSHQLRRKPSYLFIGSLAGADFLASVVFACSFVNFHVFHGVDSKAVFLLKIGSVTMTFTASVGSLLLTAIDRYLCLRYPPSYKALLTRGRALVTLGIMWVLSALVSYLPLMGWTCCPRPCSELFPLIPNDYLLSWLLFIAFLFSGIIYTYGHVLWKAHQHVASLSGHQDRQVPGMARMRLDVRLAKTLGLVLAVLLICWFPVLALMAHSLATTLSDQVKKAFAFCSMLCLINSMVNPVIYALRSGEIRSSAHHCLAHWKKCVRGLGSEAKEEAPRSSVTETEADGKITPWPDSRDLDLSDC

What is called Emax is the size of the effect at its maximum, as opposed to the concentration needed. A word on the pEC50: it is the negative decadic logarithm of the EC50, by convention in mol/L. On to `CC(C)(C)NC(=O)c1c2c(nn1-c1c[n+]([O-])ccn1)C1CCC(C2)O1` (stereo not given), for which the Emax in assay [1] is < 50%; in assay [2], 66.3%. Also, the pEC50 in assay [3] is 5.10.
In the case of `O=C(NC1(C(F)(F)F)CCC1)c1nn(-c2cnccn2)c2c1CC1CCC2O1` (stereo not given), the maximum response (Emax) in assay [1] was determined as 90.3%; in assay [2] it was 100%. The pEC50 is 6.24 in assay [4] and 10.40 in assay [3].
Turning to `CC(C)(C)c1nnc(-c2nn(-c3c[n+]([O-])ccn3)c3c2CC2CCC3O2)s1` (stereo not given), the figures for the maximum response (Emax) in assay [1] and in assay [2] were 94.9% and 99%, respectively. Moreover, the pEC50 was 6.89 in assay [4] and 10.22 in assay [3].
Regarding `CC(C)(C)NC(=O)c1c2c(nn1-c1c[n+]([O-])ccn1)CC1CCC2O1` (stereo not given), the results for the maximum response (Emax) in assay [1] and in assay [2] were < 50% and 80.3%, respectively. The negative logarithm of the EC50 (pEC50) in assay [3] is 5.57.
As to `O=C(NC12CCC(CC1)CC2)c1nn(-c2c[n+]([O-])ccn2)c2c1CC1CCC2O1` (stereo not given), the results for the Emax in assay [1] and in assay [2] were 96.5% and 99.7%, respectively. The pEC50 in assay [4] is 7.31; in assay [3], 10.70.
Consider `O=C(NC12CC3CC(CC1C3)C2)c1nn(-c2ccc(F)cc2F)c2c1CC1CCC2O1` (stereo not given), for which the values for the maximal effect (Emax) in assay [1] and in assay [2] were 98% and 99.1%, respectively. The pEC50 in assay [4] was 9.15; in assay [3] it was 10.10.
For `CC(C)(C)NC(=O)c1c2c(nn1-c1ccc(F)cc1F)C1CCC(C2)O1` (stereo not given), the Emax in assay [1] is < 50%; in assay [2] it was 72.8%. In addition, in assay [3], the negative logarithm of the EC50 (pEC50) was 5.53.
As for `O=C(NC12CC3CC(CC1C3)C2)c1nn(-c2cnccn2)c2c1CC1CCC2O1` (stereo not given), the Emax in assay [1] turned out to be 111%; in assay [2], 100%. In addition, the negative-log EC50 (pEC50) in assay [4] was 7.78; in assay [3], 10.70.
As for `O=C(NC12CC(C1)C2)c1nn(-c2c[n+]([O-])ccn2)c2c1CC1CCC2O1` (stereo not given), the figures for the maximal effect (Emax) in assay [1] and in assay [2] were 91% and 100%, respectively. Further, the results for the negative logarithm of the EC50 (pEC50) in assay [4] and in assay [3] were 5.75 and 10.30, respectively.
For the molecule `CCC(C)(C)c1noc(-c2nn(-c3cnccn3)c3c2CC2CCC3O2)n1` (stereo not given), the Emax is < 50% in assay [1] and 99.8% in assay [2]. The pEC50 in assay [3] is 10.40.
On to `CC(C)(C)[C@@H](CO)NC(=O)c1nn(-c2cnccn2)c2c1C[C@H]1CCC2O1` (single isomer, unassigned), for which the values for the maximal response (Emax) in assay [1] and in assay [2] were 111% and 100%, respectively. Also, the results for the negative logarithm of the EC50 (pEC50) in assay [4] and in assay [3] were 6.37 and 10.05, respectively.
The matching figures for `CC(C)(C)NC(=O)c1nn(-c2ccc(F)cc2F)c2c1CC1CCC2O1` (stereo not given): 99%, 95.6%, 6.97 and 8.92.
`CC(C)(C)[C@@H](CO)NC(=O)c1nn(-c2cnccn2)c2c1C[C@@H]1CC[C@H]2O1`: the maximum response (Emax) in assay [1] is < 50%; in assay [2], 100%. In addition, the negative logarithm of the EC50 (pEC50) in assay [3] is 9.25.
On to `CC(C)(C)NC(=O)c1c2c(nn1-c1cnccn1)CC1CCC2O1` (stereo not given), for which the maximal effect (Emax) was < 50% in assay [1] and 85.8% in assay [2]. Also, the negative-log EC50 (pEC50) in assay [3] was 5.78.
